Results taken from US20250237010A1, “Selenium Containing Antimicrobial Compound as a Reacitve Dye and Cross-Linking Treatment for Textile Applications” (Texas Tech University System, priority 2021, published 2025).
Where two headings read alike, the source gives them in different places.

Assays:
[1] = system: Staphylococcus aureus; test: Bacterial killing (CFUs/sample) on cotton fabric treated with the organo-selenium compound, Gram-positive; format: cell-based
Text: (§1) FIGS. 1A and 1B are graphs that compares the colony forming units (CFUs) per sample of bacteria on a fabric, showing total bacterial killing with the organoselenium compound, and no killing without the organoselenium compound. In this example, the organoselenium compound was applied to the fabric as a reactive dye.
(§2) The technology modifies triazines, a commonly used reactive dye within the textile chemistry for application to impart colors to fabrics, by incorporation of selenium to create a reactive dye with antimicrobial characteristics. Since the cotton manufacturing/processing industry currently relies on annealing of triazine to create colored fabrics, the presented technology can be incorporated into this sector with minimal changes in the production environment. The created compound, diseleniummonochlorotriazine, was evaluated in the laboratory by attaching the Se-based compound onto cotton fabrics with the following results: (1) Diseleniummonochlorotriazine killed 100% of Gram-positive bacteria (e.g., Staphylococcus aureus) that attempted to bind to the cotton, and (2) Diseleniummonochlorotriazine killed 90% of Gram-negative bacteria. (e.g., Pseudomonas aeruginosa) that attempted to bind to the cotton.
(§3) Example 1. […] The application technique for the organo-selenium compound can be used by, e.g., the textile industry, on an industrial scale to produce an anti-microbial fabric. […]

[2] = system: gram-negative and gram-positive bacteria; test: Antimicrobial activity compared with industry requirements; format: cell-based
Text: In one example, the invention is the chemical compound diseleniummonochlorotriazine. Triazines are commonly used in the textile chemistry to synthesis the reactive dye and apply to fabrics as they form covalent bonds with cellulose. Incorporating selenium creates a reactive dye with antimicrobial properties. This same base structure can be used to make diselenocyanuric chloride, diselenocyanuric bromide, diselenocyanuric fluoride, or diselenocyanuric iodine. […] In one example, the antimicrobial agent has the structure: […]

[3] = system: Pseudomonas aeruginosa; test: Bacterial killing (CFUs/sample) on cotton fabric treated with the organo-selenium compound, Gram-negative; format: cell-based; conditions: compound attached onto cotton fabric; e.g. Pseudomonas aeruginosa
Text: as §1, §2, §3

[4] = Binding to cotton and resistance to washing of the resulting fabric; format: physicochemical; conditions: attached to cotton yarns as reactive dye
Text: Briefly, the inventors developed organo-selenium compounds that can be attached to cotton yarns and is suitable for applications as reactive dye.

Compound: Clc1nc([SeH])nc([SeH])n1 [Diseleniummonochlorotriazine, diseleniummonochlorotriazine]
- killed % of Gram-positive bacteria that attempted to bind to the cotton ([1]; compound attached onto cotton fabric, e.g. Staphylococcus aureus): 100%
- antimicrobial activity level relative to industry expectations/requirements [2]: matches industry expectations
- antimicrobial activity level relative to industry expectations/requirements ([2]; listed as diseleniummonochlorotriazine): matches or exceed industrial requirements
- killed % of Gram-negative bacteria that attempted to bind to the cotton [3]: 90%

Compound: OCC(O)C[Se][Se]CC(O)CO (stereo not shown)
- antimicrobial activity level relative to industry expectations/requirements [2]: matches or exceed industrial requirements

Compound: diselenocyanuric chloride
- killing of Staphylococcus aureus on the fabric (CFUs per sample), in words ([1]; treated cotton fabric, FIG. 1A, applied as reactive dye): totally kill
- binding to the cotton and resistance to washing [4]: resistant to multiple washings
